From ChEMBL document CHEMBL5465560, “Selectivity Literature for EUbOPEN Chemogenomic Library” (2024)

What was measured:
[1] = target: T1, SNF-related serine/threonine-protein kinase (Homo sapiens) (UniProt Q9NRH2); assay: Selectivity interaction (ActivX KiNativ screen (kinase selectivity in THP-1 cell lysates)) EUB0000639a SNRK; type: subcellular; settings: lysate
T1 sequence (whole entry): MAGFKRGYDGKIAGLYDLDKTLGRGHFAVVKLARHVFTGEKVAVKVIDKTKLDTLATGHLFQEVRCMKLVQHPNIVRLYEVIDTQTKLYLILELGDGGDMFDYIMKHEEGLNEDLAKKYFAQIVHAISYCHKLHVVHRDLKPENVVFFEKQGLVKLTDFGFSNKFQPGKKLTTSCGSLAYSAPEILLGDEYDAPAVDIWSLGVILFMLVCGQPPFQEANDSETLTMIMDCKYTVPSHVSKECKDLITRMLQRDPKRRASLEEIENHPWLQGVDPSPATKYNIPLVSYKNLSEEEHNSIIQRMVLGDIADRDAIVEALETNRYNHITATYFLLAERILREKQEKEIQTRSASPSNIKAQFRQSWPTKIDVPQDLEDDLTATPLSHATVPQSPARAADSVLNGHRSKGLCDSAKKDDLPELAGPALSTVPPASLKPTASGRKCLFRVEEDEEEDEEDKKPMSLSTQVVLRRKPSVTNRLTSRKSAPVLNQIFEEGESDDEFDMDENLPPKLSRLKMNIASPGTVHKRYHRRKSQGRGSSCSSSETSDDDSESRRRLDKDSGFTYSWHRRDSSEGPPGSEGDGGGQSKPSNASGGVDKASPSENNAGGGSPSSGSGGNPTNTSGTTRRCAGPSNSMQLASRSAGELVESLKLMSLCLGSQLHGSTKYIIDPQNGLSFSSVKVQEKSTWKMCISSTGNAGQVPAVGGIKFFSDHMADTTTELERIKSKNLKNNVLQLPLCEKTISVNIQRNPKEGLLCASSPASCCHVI

[2] = target: T2, Membrane-associated tyrosine- and threonine-specific cdc2-inhibitory kinase (Homo sapiens) (UniProt Q99640); assay: Selectivity interaction (KinomeScan (DiscoverX)) EUB0001049a PKMYT1; settings: at 1 µM
T2 sequence (whole entry): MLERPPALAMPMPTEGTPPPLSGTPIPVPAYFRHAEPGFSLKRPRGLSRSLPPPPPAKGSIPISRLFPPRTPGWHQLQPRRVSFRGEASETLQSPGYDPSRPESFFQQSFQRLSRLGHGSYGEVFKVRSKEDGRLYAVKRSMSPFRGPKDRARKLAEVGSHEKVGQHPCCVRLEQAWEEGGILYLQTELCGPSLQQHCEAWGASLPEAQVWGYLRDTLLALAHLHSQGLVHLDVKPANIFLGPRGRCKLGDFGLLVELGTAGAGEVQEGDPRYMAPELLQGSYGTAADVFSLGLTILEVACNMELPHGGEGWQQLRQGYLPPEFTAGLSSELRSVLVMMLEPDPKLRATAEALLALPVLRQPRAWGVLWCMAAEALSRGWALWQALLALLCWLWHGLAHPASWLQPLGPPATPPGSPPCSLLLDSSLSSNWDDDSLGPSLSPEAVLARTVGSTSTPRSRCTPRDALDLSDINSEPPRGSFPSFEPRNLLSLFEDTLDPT

[3] = target: Serine/threonine-protein kinase PAK 3 (Homo sapiens) (UniProt O75914); assay: Selectivity interaction (KinomeScan (DiscoverX)) EUB0000695a PAK3; settings: at 100 nM
[4] = target: Citron Rho-interacting kinase (Homo sapiens) (UniProt O14578); assay: Selectivity interaction (KinomeScan (DiscoverX)) EUB0000045b CIT
[5] = target: T3, Serine/threonine-protein kinase Nek1 (Homo sapiens) (UniProt Q96PY6); assay: Selectivity interaction (KinomeScan (DiscoverX)) EUB0000618a NEK1; settings: at 10 µM
T3 sequence (whole entry): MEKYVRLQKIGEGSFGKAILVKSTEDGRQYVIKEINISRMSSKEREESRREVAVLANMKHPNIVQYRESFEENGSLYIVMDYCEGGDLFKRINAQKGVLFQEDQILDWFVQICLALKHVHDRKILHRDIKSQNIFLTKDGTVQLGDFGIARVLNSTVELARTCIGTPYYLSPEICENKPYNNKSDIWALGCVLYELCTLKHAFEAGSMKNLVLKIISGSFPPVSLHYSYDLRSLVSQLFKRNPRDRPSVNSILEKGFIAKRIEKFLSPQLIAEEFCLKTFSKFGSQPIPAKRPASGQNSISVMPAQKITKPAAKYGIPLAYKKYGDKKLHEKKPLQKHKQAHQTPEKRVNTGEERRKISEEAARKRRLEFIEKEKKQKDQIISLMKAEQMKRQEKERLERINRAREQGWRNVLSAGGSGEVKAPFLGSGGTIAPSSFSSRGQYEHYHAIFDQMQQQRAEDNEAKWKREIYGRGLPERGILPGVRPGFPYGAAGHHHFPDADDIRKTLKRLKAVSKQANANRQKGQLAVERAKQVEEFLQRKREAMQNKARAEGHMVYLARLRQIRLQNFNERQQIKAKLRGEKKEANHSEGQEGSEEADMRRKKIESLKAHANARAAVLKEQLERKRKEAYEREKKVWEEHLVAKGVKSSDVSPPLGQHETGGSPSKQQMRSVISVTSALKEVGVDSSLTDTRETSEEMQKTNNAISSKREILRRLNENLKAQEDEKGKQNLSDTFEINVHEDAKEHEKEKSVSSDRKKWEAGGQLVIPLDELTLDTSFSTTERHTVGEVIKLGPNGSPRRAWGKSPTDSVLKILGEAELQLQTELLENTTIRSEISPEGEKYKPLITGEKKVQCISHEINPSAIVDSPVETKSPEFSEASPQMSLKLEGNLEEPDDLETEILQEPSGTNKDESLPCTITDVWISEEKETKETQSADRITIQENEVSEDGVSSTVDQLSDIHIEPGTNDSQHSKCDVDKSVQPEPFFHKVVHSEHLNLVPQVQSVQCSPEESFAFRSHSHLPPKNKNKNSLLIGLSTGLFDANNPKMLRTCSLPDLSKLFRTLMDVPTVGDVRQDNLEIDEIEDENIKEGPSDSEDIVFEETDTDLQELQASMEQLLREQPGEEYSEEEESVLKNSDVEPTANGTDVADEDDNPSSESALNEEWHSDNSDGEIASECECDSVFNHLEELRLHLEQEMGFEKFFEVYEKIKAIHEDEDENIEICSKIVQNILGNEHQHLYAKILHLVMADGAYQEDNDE

[6] = target: Fibroblast growth factor receptor 1 (Homo sapiens, UniProt P11362); assay: Selectivity interaction (KinomeScan (DiscoverX)) EUB0000618a FGFR1; settings: at 10 µM
[7] = target: MAP kinase-activated protein kinase 2 (Homo sapiens, UniProt P49137); assay: Selectivity interaction (Ambit KINOMEscan and KiNATiv profiling in Jurkat cells) EUB0000090b MAPKAPK2; type: cell-based; settings: at 1 µM
Chain of MAP kinase-activated protein kinase 2 (P49137 whole entry, looked up): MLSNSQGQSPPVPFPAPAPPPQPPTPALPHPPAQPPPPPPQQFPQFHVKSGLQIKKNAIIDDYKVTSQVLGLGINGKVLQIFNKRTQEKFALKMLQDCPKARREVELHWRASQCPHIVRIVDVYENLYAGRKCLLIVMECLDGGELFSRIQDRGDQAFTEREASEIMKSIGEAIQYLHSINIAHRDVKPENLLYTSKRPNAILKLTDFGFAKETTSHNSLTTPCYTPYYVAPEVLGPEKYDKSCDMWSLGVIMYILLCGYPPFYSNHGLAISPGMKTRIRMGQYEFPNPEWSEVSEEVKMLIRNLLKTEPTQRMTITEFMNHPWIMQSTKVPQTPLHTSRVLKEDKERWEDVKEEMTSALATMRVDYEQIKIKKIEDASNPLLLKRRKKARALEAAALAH

Chain of Citron Rho-interacting kinase (Homo sapiens) (O14578 whole entry): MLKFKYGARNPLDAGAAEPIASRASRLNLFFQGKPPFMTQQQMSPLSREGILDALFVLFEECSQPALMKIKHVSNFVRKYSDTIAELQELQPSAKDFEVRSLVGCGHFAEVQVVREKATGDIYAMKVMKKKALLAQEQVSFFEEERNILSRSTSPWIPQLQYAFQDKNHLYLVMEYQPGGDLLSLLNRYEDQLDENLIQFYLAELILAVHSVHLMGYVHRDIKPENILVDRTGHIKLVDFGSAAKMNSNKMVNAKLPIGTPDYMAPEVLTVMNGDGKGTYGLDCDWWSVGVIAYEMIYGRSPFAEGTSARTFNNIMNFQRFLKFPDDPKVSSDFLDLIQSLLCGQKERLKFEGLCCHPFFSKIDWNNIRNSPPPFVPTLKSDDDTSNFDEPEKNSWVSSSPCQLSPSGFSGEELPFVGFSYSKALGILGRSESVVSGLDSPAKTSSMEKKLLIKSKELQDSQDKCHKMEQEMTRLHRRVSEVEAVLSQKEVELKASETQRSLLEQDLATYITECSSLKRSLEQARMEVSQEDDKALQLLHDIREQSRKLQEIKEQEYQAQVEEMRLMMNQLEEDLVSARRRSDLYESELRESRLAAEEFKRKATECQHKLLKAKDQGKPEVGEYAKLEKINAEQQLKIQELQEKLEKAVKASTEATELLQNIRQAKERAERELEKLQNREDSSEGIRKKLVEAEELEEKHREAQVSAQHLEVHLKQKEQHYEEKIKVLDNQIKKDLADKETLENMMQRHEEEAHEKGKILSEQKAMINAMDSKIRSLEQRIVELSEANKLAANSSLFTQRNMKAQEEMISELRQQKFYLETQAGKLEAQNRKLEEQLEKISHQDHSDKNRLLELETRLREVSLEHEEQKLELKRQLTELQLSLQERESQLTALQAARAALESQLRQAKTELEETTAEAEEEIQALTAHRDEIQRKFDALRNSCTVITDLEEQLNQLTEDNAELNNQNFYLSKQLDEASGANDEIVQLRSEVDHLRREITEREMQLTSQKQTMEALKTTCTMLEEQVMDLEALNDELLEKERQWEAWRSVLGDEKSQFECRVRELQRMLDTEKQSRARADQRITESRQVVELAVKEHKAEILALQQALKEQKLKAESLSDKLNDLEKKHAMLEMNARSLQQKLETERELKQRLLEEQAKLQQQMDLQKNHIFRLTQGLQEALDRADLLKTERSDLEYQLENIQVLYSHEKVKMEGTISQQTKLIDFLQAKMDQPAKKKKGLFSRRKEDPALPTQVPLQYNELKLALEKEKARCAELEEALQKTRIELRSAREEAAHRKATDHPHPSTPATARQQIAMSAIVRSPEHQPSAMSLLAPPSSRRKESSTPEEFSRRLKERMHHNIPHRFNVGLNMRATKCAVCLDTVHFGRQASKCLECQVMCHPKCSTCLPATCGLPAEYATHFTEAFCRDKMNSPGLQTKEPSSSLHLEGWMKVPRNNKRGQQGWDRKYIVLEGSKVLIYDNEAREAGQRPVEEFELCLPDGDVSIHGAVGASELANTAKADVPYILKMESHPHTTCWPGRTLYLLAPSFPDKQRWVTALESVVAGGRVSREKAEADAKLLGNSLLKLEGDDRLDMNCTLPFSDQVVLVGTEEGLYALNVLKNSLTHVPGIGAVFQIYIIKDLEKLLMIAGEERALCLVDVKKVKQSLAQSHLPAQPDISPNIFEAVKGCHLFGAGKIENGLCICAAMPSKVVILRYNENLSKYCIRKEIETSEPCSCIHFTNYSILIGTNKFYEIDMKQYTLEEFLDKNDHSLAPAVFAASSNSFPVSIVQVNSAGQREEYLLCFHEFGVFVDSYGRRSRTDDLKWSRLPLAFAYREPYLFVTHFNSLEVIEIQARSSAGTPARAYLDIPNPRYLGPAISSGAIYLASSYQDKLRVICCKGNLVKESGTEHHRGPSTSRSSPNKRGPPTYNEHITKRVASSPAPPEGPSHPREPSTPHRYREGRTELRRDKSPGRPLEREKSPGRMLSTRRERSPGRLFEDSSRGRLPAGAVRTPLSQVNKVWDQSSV
Chain of Serine/threonine-protein kinase PAK 3 (Homo sapiens) (O75914 whole entry, looked up): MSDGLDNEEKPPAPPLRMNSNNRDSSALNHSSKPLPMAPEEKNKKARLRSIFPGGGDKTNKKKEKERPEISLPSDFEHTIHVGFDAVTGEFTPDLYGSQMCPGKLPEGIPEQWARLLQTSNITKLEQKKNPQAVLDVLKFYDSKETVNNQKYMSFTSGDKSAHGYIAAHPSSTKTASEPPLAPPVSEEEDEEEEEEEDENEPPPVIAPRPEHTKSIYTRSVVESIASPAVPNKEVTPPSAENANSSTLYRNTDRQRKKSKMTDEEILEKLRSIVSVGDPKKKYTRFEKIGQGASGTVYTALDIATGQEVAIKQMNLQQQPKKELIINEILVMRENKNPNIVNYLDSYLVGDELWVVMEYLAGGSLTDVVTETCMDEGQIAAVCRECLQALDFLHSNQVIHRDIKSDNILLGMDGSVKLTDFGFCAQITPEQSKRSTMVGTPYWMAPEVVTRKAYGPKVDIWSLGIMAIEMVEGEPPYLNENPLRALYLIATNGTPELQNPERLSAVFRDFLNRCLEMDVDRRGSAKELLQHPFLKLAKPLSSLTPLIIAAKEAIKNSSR
Chain of Fibroblast growth factor receptor 1 (P11362 22-822 limits assumed): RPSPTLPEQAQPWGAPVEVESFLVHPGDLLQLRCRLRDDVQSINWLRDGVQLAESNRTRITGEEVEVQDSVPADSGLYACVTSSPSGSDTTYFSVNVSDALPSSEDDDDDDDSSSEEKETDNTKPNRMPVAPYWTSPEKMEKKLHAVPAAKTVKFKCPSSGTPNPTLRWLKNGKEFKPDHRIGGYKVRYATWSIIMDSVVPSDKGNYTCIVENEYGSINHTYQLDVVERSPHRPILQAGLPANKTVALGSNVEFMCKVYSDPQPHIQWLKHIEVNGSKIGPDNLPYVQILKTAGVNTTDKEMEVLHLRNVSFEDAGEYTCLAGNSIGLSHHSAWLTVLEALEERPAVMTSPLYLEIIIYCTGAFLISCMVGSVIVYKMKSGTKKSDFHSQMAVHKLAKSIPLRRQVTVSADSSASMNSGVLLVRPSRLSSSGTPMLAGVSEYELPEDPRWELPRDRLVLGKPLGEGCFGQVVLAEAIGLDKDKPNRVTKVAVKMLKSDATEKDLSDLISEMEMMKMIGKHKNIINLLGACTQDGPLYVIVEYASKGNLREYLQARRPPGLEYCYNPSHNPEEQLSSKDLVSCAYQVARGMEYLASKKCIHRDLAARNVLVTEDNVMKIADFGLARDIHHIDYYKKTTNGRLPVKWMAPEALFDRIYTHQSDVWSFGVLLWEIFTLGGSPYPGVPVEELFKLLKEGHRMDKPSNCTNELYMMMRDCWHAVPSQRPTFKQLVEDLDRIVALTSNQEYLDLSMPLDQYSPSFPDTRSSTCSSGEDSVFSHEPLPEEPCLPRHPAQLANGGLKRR

CC[C@@H]1[C@H](F)C(=O)N[C@@H]1COc1nccc2cc(C(N)=O)c(OC)cc12 [ZIMLOVISERTIB]
% of inhibition ([1]; at 0.01 µM): -4.2% | % of inhibition ([1]; at 0.04 µM): 1.9% | % of inhibition ([1]; at 0.2 µM): 21.5% | % of inhibition ([1]; at 1 µM): 3.6% | % of inhibition ([1]; at 5 µM): 23.9%

COc1cc(Nc2nc(C)cc(-c3cnn4nc(OC)ccc34)n2)cc(C(F)(F)F)c1
% of control [2]: 97%

Cc1cc(F)c(C(=O)Nc2cccc(-c3nncn3C(C)C)n2)cc1-n1cnc(C2CC2)c1
% of control [3]: 89%

C=CC(=O)Nc1cc(-n2c(=O)ccc3cnc4ccc(-c5ccc(NS(C)(=O)=O)cc5)cc4c32)ccc1C
% of control ([4]; at 1 µM): 83% | % of control ([4]; at 10 µM): 53%

O[C@H]1CC[C@H](Nc2ncc3nc(Nc4c(F)cc(F)cc4F)n([C@H]4CCOC4)c3n2)CC1
% of control [5]: 97% | % of control [6]: 69%

CN(C)C/C=C/C(=O)Nc1ccc(C(=O)N2CCCC(Nc3ncc(Cl)c(-c4c[nH]c5ccccc45)n3)C2)cc1 (configuration not stated)
% of control [7]: 97%
